Results taken from article PMC6413231, “o-Vanillin Derived Schiff Bases and Their Organotin(IV) Compounds: Synthesis, Structural Characterisation, In-Silico Studies and Cytotoxicity” (International Journal of Molecular Sciences, 2019).

What was measured:
[1] = system: BE2-C (neuroblastoma) cancer cells; test: MTT growth inhibition assay, BE2-C; format: cell-based; settings: 72 h, ± standard error, read-out: Growth Inhibition Concentration, GI50
Description: The Schiff bases and their organotin(IV) compounds were screened for in vitro cytotoxicity against a panel of 12 cancer cell lines: EJ-28 (muscle invasive bladder), RT-112 (minimum-invasive bladder), HT29 (colon), U87 and SJ-G2 (glioblastoma), MCF-7 (breast), A2780 (ovarian), H460 (lung), A431 (skin), DU145 (prostate), BE2-C (neuroblastoma), MIA (pancreatic) and one normal breast cell line (MCF-10A) using the MTT metabolic assay (Figure 6). After 72 h of incubation, a dose-dependent […] effect towards the cancer cell lines was measured at very low micromolar (µM) concentrations of the compounds. The growth inhibition concentration of the Schiff bases and their organotin(IV) compounds required to inhibit 50% cell proliferation relative to the cells that were treated with DMSO (control) are given in Table 2. The stability of these compounds was assessed in DMSO as well as in a mixture of DMSO-H2O. The absorbance obtained from UV-vis spectroscopy analysis was monitored for 72 h, and an unchanged pattern in the spectra was indicative that the compounds were stable in both the solvent systems tested.
For HT29 (colon), U87 and SJ-G2 (glioblastoma), MCF-7 (breast), A2780 (ovarian), H460 (lung), A431 (skin), Du145 (prostate), BE2-C (neuroblastoma), MIA (pancreas) cell lines and one normal breast cell line, MCF-10A (normal breast), the MTT assays were performed using the following method:
Stock solutions were prepared as follows and stored at −20 °C: Trial compounds were stored as 10 mM solutions in DMSO. All cell lines were cultured in a humidified atmosphere 5% CO2 at 37 °C. The cancer cell lines were maintained in Dulbecco’s modified Eagle’s medium (DMEM) (Trace Biosciences) supplemented with 10% foetal bovine serum, 10 mM sodium bicarbonate, penicillin (100 IU/mL), streptomycin (100 μg/mL) and glutamine (4 mM). The normal cell line, MCF-10A was cultured in DMEM:F12 (1:1) cell culture media, 5% heat inactivated horse serum, supplemented with penicillin (50 IU/mL), streptomycin (50 μg/mL), 20mM Hepes, L-glutamine (2 mM), epidermal growth factor (20 ng/mL), hydrocortisone (500 ng/mL), cholera toxin (100 ng/mL) and insulin (10 μg/mL).
Cells in logarithmic growth were transferred to 96-well plates. Cytotoxicity was determined by plating cells in duplicate in 100 μL medium at a density of 2500–4000 cells/well. On day 0 (24 h after plating), when the cells were in logarithmic growth, 100 μL medium, with or without the test agent, was added to each well. After 72 h drug exposure, growth inhibitory effects were evaluated using the MTT (3-[4,5-dimethylthiazol-2-yl]-2,5-diphenyltetrazolium bromide) assay and absorbance read at 540 nm. Percentage growth inhibition was determined at a fixed drug concentration of 25 μM. A value of 100% was indicative of complete cell growth inhibition. Those analogues showing appreciable percentage growth inhibition underwent further dose-response analysis allowing for the calculation of a GI50 value. This value is the drug concentration at which cell growth is 50% inhibited based on the difference between the optical density values on day 0 and those at the end of drug exposure.

[2] = system: calf thymus DNA (CT-DNA); test: CT-DNA binding by UV-vis absorption titration; settings: for Bathochromism Shift (nm) / Hypochromism, (%): CT-DNA, UV-vis absorption titration; for Gibbs Free Energy: interaction with CT-DNA
Description: Both theoretical and experimental DNA binding of the synthesised organotin(IV) compounds with DNA were investigated. The interaction of organotin(IV) compounds with CT-DNA was elucidated via UV-visible absorption spectroscopy. […] The absorption spectra of diphenyltin(IV) compounds at a constant concentration (50 μM) in the absence and the presence of different concentrations of CT-DNA are shown in Figure 8. Upon increasing concentrations of CT-DNA, hypochromism and bathochromism occurred at around 350–377 nm indicating strong π–π stacking interactions between the aromatic chromophore of the organotin(IV) compounds and the nitrogeneous pair of the DNA strand [11, 70]. The same hypochromism and bathochromism shifts were also observed in other transitions. In order to compare the binding strength of the organotin(IV) compounds to CT-DNA, the intrinsic binding constants (Kb) were quantitatively determined and are presented in Table 3.
DNA binding experiments were carried out at 25°C. DNA concentration per nucleotide was determined using the molar absorption coefficient (6600 M^−1 cm^−1) at 260 nm. […] Absorption titration experiments were performed maintaining the concentration of the organotin(IV) compounds solutions at 50 µM and gradually increasing the concentration of CT-DNA. The organotin(IV) compounds were dissolved in DMSO and diluted with Tris-HCI buffer at room temperature (25 °C). The solutions were scanned over 230–600 nm. Absorbance values were recorded 10 min after the addition of DNA solution. The binding constant, Kb was determined using the equation: [DNA]/(εa−εf)=[DNA]/(εb−εf)+1/Kb(εb−εf) where [DNA] is the concentration of DNA in base pairs, εa corresponds to the apparent molar extinction coefficient Aabs/[M], εf corresponds to the extinction coefficient for the free organotin [M] and εb corresponds to the extinction coefficient for the fully bound organotin compound.

Substance | GI50 [1] [nM] | Bathochromism Shift (nm) [2] [nm] | Hypochromism, (%) [2] [%] | Gibbs Free Energy [2] [kJ/mol]
Diphenyltin(IV) [Ph2Sn(S2MoVa), Diphenyltin(IV) [S-2-Methybenzyl-β-N-(2-hydroxy-3-methoxybenzylmethylene) dithiocarbazate]] | 470 ± 50 | 6 | 41.06 | -33.1
Diphenyltin(IV) [Ph2Sn(S4MoVa), Diphenyltin(IV) [S-4-Methybenzyl-β-N-(2-hydroxy-3-methoxybenzylmethylene) dithiocarbazate]] | 530 ± 10 | 4 | 28.25 | -31.0
